Each structure is given as a SMILES string.

Series [1] relates to C57 mice susceptible to social defeat by CD-1 aggressive mice. The series can be described thus: Social defeated stress (SDS) model, Example 42. Format: in vivo. To be noted: 10 mg/kg gavage every day.
Protocol: Male CD-1 aged 4-6 months mice which had passed childbearing age were raised separately, allowed to eat freely and adapt to the environment for about one week. Male C57 mice (aged 8-20 weeks differently) were used to screen for aggressive CD-1 mice. The mice screened by C57 were placed directly in the cage of CD-1 for 3 minutes, and the latency period for CD-1 to start showing offensive was recorded, and then the mice screened by C57 were moved out. For each CD-1 mouse, the same C57 was used to screen it three times a day, and different C57-selected mice were selected every day for a total of three days of screening. […] After screening for CD-1 aggressive mice for modeling, each C57 test mouse was exposed to different CD-1 aggressive mice for 10 consecutive days, 10 minutes each day. […] After 10 minutes of contact, the test mice were isolated from the invaders. Test mice and aggressive mice were placed in adjacent sections of the same squirrel cage, separated by a porous transparent plastic baffle, allowing test mice to be exposed under a threatening chronic stress stimulation for the next 24 hours. The control mice were placed in cages having the same structure, but the other side of the baffle was placed with other mice of the same line that were replaced daily. After 24 hours after the end of the last day of the experiment, we evaluated CSDS-induced social behavioral changes and selected all susceptible mice based on previous reports. The social interaction ratio (SI ratio) was calculated according to the following formula: SI ratio=time for the mouse in the interaction area when the aggressor exists/time for the mouse in the interaction area when the aggressor is absent. […] All selected test mice and control mice were then housed individually for 3 weeks. […] The mice in the vehicle group were administered by gavage with 0.5% CMC-Na every day. The SI ratio was assessed once a week.
Two-way ANOVA was used to analyze and LSD method was used for the multiple comparisons of calibration results. The data were expressed in Mean sem. […]
In series [2] the test system is ICR mice. The series can be described thus: Tail suspension test (TST), Example 39. Format: in vivo. To be noted: gavage 10 mg/Kg for 6 days, t-test. From the text: Tail Suspension Test (TST) to Investigate the Antidepressant Activity of Some Compounds and Some Natural Products of the Present Invention
(§1) Male ICR mice (body weight, 20±2 g) used in the experiment were purchased from the Experimental Animal Center of Shanghai Institute of Materia Medica, Chinese Academy of Sciences. They were free access to water and kept at room temperature (23 2) ° C. in natural light. All mice were randomly divided into a blank control group and a test group, with 10 mice in each group and 5 mice/cage. The experiment was started after 3 days of adaptation in the breeding environment. The mice were fasted for 12 hours before the experiment but free access to water. The specific administration method was gavage administration, and the administration dose was 10 mg/Kg, and the blank control group was given an equal volume of 0.5% CMC-Na.
Specific procedures: The mice were continuously administered for 6 days, and tested 1 hour after the last administration. Firstly, the spontaneous activity of the mice was measured by the open field method, that is, the mice were individually placed in a cylindrical glass jar for 4 minutes, and the number of lifting arms within the last 2 minutes was recorded. Then the tail of the mice was stick onto the horizontal bar by the tape at 2 cm from the tip of the tail, and the animal eyesight was separated by the surrounding plates. The horizontal bar was about 25 cm from the ground, so that the mouse was about 10 cm from the ground, and the timing was 6 min. The cumulative immobility time within the last 4 minutes was recorded. Each group of mice was operated in parallel.
Experimental data processing: The experimental results were expressed as mean standard error (x SD). Statistical analysis was performed using t-test to determine whether it was significant. […] Then, the t-test was performed on the experimental index of tail suspension test to determine whether it had antidepressant effect.

The test system of series [3] is ICR mice. The series can be described thus: Forced swimming test (FST), Example 38. Format: in vivo. The following applies: gavage 10 mg/Kg for 6 days, t-test.
Source text: Forced swimming test (FST) to investigate the antidepressant activity of some compounds and some natural products of the present invention
as §1, with “dose of the administration group” for “dose”
Specific procedures: The mice were continuously administered for 6 days, and tested 1 hour after the last administration. Firstly, the spontaneous activity of the mice was measured by the open field method, that is, the mice were individually placed in a cylindrical glass jar for 4 minutes, and the number of lifting arms within the last two minutes was recorded. The mice were then individually placed in a cylindrical glass jar (20 cm high and 14 cm in diameter) with a water depth of 10 cm and a water temperature of 23° C. to 25° C. After mice entered into water, a 6-minute timing was conducted, the cumulative immobility time (the criteria for determining immobility: the mice stopped struggling in the water, or floated with only small limb movements to keep the head float on the water) within the last four minutes was recorded. Each group of mice was operated in parallel.
Experimental data processing: The experimental results were expressed as mean standard error (x SD). Statistical analysis was performed using t-test to determine whether it was significant. […] Then, the t-test was performed on the experimental index of forced swimming to determine whether it had antidepressant effect.

In series [4] the test system is rats. The series is described as follows: Tail suspension test in rat model, compound C-11 versus fluoxetine, Example 41. Format: in vivo. The procedure: On the day of the behavioral test, animals were dosed twice and administered orally 4 h and 1 h before the behavioral test. During the experiment, the tail of the rat was hung on a tail suspension test stand about 15 cm away from the ground with a tape or a clip at about 1 cm away from the tail end. […] The experimental time for each group was 6 minutes.

The subject of series [5] is ICR mice. The series can be described thus: Toxicity observed during antidepressant efficacy screening (FST and TST animal batch). Format: in vivo. To be noted: same animal batch as efficacy screening, gavage 10 mg/Kg.
Source text: as §1, with “dose of the administration group” for “dose”
Male ICR mice (body weight, 20±2 g) used in the experiment were purchased from the Experimental Animal Center of Shanghai Institute of Materia Medica, Chinese Academy of Sciences. They were free access to water and kept at room temperature (23 2) ° C. in natural light. All mice were randomly divided into a blank control group and a test group, with 10 mice in each group and 5 mice/cage. The experiment was started after 3 days of adaptation in the breeding environment. The mice were fasted for 12 hours before the experiment but free access to water. […]

The test system of series [6] is mice. The series can be described thus: Tail suspension test in mouse model, compound C-11 versus fluoxetine, Example 40. Format: in vivo. The following applies: FIG. 2. The procedure: On the day of the behavioral test, animals were dosed twice and administered orally 4 h and 1 h before the behavioral test. During the experiment, the tail of the mouse was hung on a tail suspension test stand about 15 cm away from the ground with a tape or a clip at about 1 cm away from the tail end. The mice struggled to overcome the abnormal posture, but appeared intermittent immobility after a period of activity showing disappointment state. The experimental time for each group was 6 minutes. Since most of the mice struggled actively for the first two minutes, the immobility time within the last four minutes was recorded.

The subject of series [7] is rats. The series can be described thus: Forced swimming test in rat model, compound C-11 versus fluoxetine, Example 41. Format: in vivo. The procedure:
(§2) The rats were placed in a cylindrical jar 24 hours before administration to accommodate the underwater environment for 15 min. On the day of the behavioral test, animals were administered twice and administered orally 4 h and 1 h before the behavioral test. The rats were individually placed in a cylindrical glass jar, timed for 6 minutes, and the number of arm lift was recorded within the last 2 minutes. The rats were then placed in a cylindrical glass jar having 30 cm high and 20 cm in diameter. […] Water temperature was 23° C.-25° C.

Series [8] concerns mice. The series can be described thus: Forced swimming test in mouse model, compound C-11 versus fluoxetine, Example 40. The class given is in vivo. To be noted: FIG. 1. The method, then: as §2, with “The mice were placed” for “The rats were placed”, “test. The mice were individually” for “test. The rats were individually”, “minutes. The mice were then” for “minutes. The rats were then”, “C.-25° C. After the mice entered into the water, a 6-minute video was taken. […] Each group of mice was operated in parallel.” for “C.-25° C.”

For series [9] the following is noted: Acta Pharmacologica Sinica 2014; 35 (9): 1188-1198; cited from earlier work.
Setting [10] is: rats, oral 4 h and 1 h before the test, dose not given.
[11] abbreviates: mice, oral 4 h and 1 h before the test, vs blank group.
[12] abbreviates: dose 3.46 mg/kg oral, vs vehicle group, FIG. 3.

As to `C[C@H]1CC[C@@]2(OC1)O[C@H]1C[C@H]3[C@@H]4CC[C@@H]5C[C@H](NC(=O)NC6CCCCC6)CC[C@]5(C)[C@H]4CC[C@]3(C)[C@H]1[C@@H]2C` [compound C-11], the “duration of oral administration that effectively alleviates depressive symptoms” value in series [1] is 1-2 weeks. Further, the “effect on immobility time of mouse in tail suspension test compared with the blank group (in words)” value in the series on ICR mice [2] is reported as “extremely significant antidepressant activity”. Besides, in the series with ICR mice [3], the “effect on immobility time of mice in forced swimming test compared with the blank group (in words)” value is given as “extremely significant antidepressant activity”. For the same compound, the “effect on cumulative immobility time of rats in tail suspension test” value in the series with rats [4] (dose 3.46 mg/kg oral, vs vehicle group, FIG. 4) is on record as “significantly reduce the cumulative immobility time”. Further, the “effective dose compared with fluoxetine” value in the series on rats [4] (rat tail suspension test, FIG. 4) is “significantly lower than that of the positive drug fluoxetine”; in the series with mice [6] (mouse tail suspension test), “only half of that of fluoxetine”; in the series with rats [7] (rat forced swimming test, FIG. 3), “significantly lower than that of the positive drug fluoxetine”; in the series on mice [8] (mouse forced swimming test), “only half of that of fluoxetine”. In the series with rats [4] (setting [10]), the “effect on immobility time of rats in tail suspension test (in words)” value was “significantly reduced the immobility time”. Besides, the toxicity observed entry in the series on ICR mice [5] was “No significant toxicity was observed”. Further, in the series with mice [6] (setting [11]), the “effect on cumulative immobility time of the mouse in tail suspension test (in words)” value was “significantly reduced the cumulative immobility time”. Also, the “effect on immobility time of rats in forced swimming test” value is on record as “significantly reduce the immobility time” in the series on rats [7] (dose 1.73 mg/kg oral, vs vehicle group, FIG. 3) and “significantly reduce the immobility time” in the series on rats [7] (setting [12]). In addition, the “effect on wall climbing behavior / wall climbing time of rats in forced swimming test” value in the series on rats [7] (setting [12]) is given as “significantly increases the wall climbing time”. For the same compound, the “effect on cumulative immobility time of rats in the forced swimming test (in words)” value in the series on rats [7] (setting [10]) was “significantly reduced the cumulative immobility time”. The “effect on cumulative immobility time of mice in the forced swimming test (in words)” value with mice [8] (setting [11]) was “significantly reduced the cumulative immobility time”.
`C[C@H]1CC[C@@]2(OC1)O[C@H]1C[C@H]3C4CC[C@@H]5C[C@@H](O[C@@H]6OC(CO)[C@H](O)[C@H](O)C6O[C@@H]6OC(CO)[C@@H](O)[C@H](O)C6O)CC[C@]5(C)C4CC[C@]3(C)C1[C@@H]2C` (stereo partly shown) [timosaponin A3, reference compound]: the “effect on immobility time of mouse in tail suspension test compared with the blank group (in words)” value in the series on ICR mice [2] is on record as “significant antidepressant activity”. Moreover, the “effect on immobility time of mice in forced swimming test compared with the blank group (in words)” value with ICR mice [3] is on record as “could not significantly reduce the immobility time”. Also, in series [9], the toxicity entry was “significant toxicity”.

Values taken from patent US11142543B2 (priority 2016, dated 2021).
